From BindingDB's records for doi:10.7270/Q2D798VP (Broad Institute, 2009)

These compounds were tested against T1, Zinc finger protein mex-5 (Caenorhabditis elegans, UniProt Q9XUB2) (assay: MEX-5/TCR-2 RNA interaction inhibitors, dose response, biochemical, C. elegans, fluorescence polarization (AID 1960)).
T1 sequence (Q9XUB2 whole entry): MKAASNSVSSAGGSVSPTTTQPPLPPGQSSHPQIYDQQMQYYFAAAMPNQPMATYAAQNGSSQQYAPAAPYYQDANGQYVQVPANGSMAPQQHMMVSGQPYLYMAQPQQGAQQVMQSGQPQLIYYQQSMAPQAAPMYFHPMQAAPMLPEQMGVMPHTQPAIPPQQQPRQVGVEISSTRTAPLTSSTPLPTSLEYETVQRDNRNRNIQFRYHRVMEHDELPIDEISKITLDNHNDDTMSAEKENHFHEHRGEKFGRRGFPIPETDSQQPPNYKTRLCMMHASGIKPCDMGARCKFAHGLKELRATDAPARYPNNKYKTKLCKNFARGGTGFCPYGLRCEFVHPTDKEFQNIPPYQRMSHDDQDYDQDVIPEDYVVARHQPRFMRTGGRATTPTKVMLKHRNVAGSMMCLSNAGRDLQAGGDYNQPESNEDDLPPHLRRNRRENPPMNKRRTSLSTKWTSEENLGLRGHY

Row | Compound | EC50 [µM]
1 | C=c1cc(O)c(CN(C)C)c2oc(=Cc3ccco3)c(O)c12 [(2Z)-7-[(dimethylamino)methyl]-2-(furan-2-ylmethylidene)-6-hydroxy-4-methyl-1-benzofuran-3-one] | 39.8
2 | CCCCOC(=O)c1ccc(NN=C2C(=O)NC(=O)C(C#N)=C2C)cc1 [MLS000778379] | > 300
3 | O=C1NC(=O)N(c2cccc(F)c2)C(=O)C1=Cc1c[nH]c2ccccc12 | 36.6
4 | COc1[nH]c(N=Cc2ccccc2)c(C#N)c1C#N [2-methoxy-5-[(phenylmethylene)amino]-1H-pyrrole-3,4-dicarbonitrile] | 5.63
5 | N#CC1C(=N)OC2=C(C(=O)CCC2)C1c1ccccc1 (stereo not drawn) [2-amino-5-keto-4-phenyl-4,6,7,8-tetrahydrochromene-3-carbonitrile] | > 300
6 | CCOC(=O)c1c(NC=C2C(=O)NC(=S)NC2=O)sc(C)c1C [ethyl 2-[[4,6-bis(oxidanylidene)-2-sulfanylidene-1,3-diazinan-5-yl]methylideneamino]-4,5-dimethyl-thiophene-3-carboxylate] | > 300
7 | COc1ccccc1N1C(=O)C(=Nc2ccccc2O)C(Cl)C1=O (stereo not drawn) [3-chloranyl-4-[(2-hydroxyphenyl)amino]-1-(2-methoxyphenyl)pyrrole-2,5-dione] | 8.19
8 | Cc1cc(C=C2C(=O)NC(=O)N(c3ccc(Cl)cc3)C2=O)c(C)n1C [(5E)-1-(4-chlorophenyl)-5-[(1,2,5-trimethyl-3-pyrrolyl)methylidene]-1,3-diazinane-2,4,6-trione] | 47.7
